pEC50: −log10 of the molar value. Read-outs that look alike come from different tables or passages of the source.
Assays:
[1] = tested on: HCV genotype 1a (H77 strain) replicon in HUH-7 cells; test: HCV replicon luciferase reporter assay, genotype 1a; format: cell-based; conditions: Hepatitis C virus, Huh-7, 72 h, 3 days incubation, read-out: LE_1a (EC50, range)
In short: (§1)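 Replicon inhibition for both genotypes was measured as Renilla luciferase signal (EnduRen, 7.5 μM final, 2 h) after 3-day, 37° C exposure of replicon-bearing HUH-7 cells in 4% FCS DMEM, 0.5% DMSO. The 1b construct carries S1179I; the 1a H77 construct carries P1496L and S2204I. Twenty-point, 3-fold dilutions were fitted four-parametrically for EC50, and CC50 was taken from multiplexed Cell Titer-Blue.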

[2] = tested on: HCV genotype 1b (Con1) replicon in HUH-7 cells; test: HCV replicon luciferase reporter assay, genotype 1b; format: cell-based; conditions: Hepatitis C virus, Huh-7, 72 h, 3 days incubation, read-out: LE_1b (EC50, range)
In short: as §1

[3] = HCV genotype 1a replicon luciferase
[4] = HCV genotype 1b replicon luciferase
[5] = HCV genotype 1a replicon luciferase assay, range class
[6] = HCV genotype 1b replicon luciferase assay, range class

SMILES | pEC50 [1, 3] | pEC50 [2, 4] | also measured
[2H]C([2H])([2H])C(OC(=O)N[C@@H]1C(=O)N2C[C@H](Oc3nnc(OC)c4ccccc34)C[C@H]2C(=O)N[C@]2(C(=O)NS(=O)(=O)C3(C)CC3)C[C@H]2/C=C\CC[C@H](C)C[C@H]1C)(C([2H])([2H])[2H])C(F)(F)F [Compound 5009] | > 8.26 | > 8.26 | 
COc1ccc2c(O[C@@H]3C[C@H]4C(=O)N[C@]5(C(=O)NS(=O)(=O)C6(C)CC6)C[C@H]5/C=C\CC[C@@H](C)C[C@@H](C)[C@H](NC(=O)OC(C)(C)C)C(=O)N4C3)nc(OC(C)C)cc2c1 [Compound 3196, tert-butyl ((2R,6S,7R,9R,13aS,14aR,16aS,Z)-2-((3-isopropoxy-6-methoxyisoquinolin-1-yl)oxy)-7,9-dimethyl-14a-(((1-methylcyclopropyl)sulfonyl)carbamoyl)-5,16-dioxo-1,2,3,5,6,7,8,9,10,11,13a,14,14a,15,16,16a-hexadecahydrocyclopropa[e]pyrrolo[1,2-a][1,4]diazacyclopentadecin-6-yl)carbamate] | 9.00 to 9.29 | 9.30 to 10.00 | 
CCOc1ccc2ncc(O[C@@H]3C[C@H]4C(=O)N[C@]5(C(=O)NS(=O)(=O)C6(C)CC6)C[C@H]5/C=C\CC[C@@H](C)C[C@@H](C)[C@H](NC(=O)OC(C)(C)C)C(=O)N4C3)cc2c1 [Compound 4311, tert-butyl ((2R,6S,7R,9R,13aS,14aR,16aS,Z)-2-((6-ethoxyquinolin-3-yl)oxy)-7,9-dimethyl-14a-(((1-methylcyclopropyl)sulfonyl)carbamoyl)-5,16-dioxo-1,2,3,5,6,7,8,9,10,11,13a,14,14a,15,16,16a-hexadecahydrocyclopropa[e]pyrrolo[1,2-a][1,4]diazacyclopentadecin-6-yl)carbamate] | 8.30 to 9.00 | 8.30 to 9.00 | 
CC(C)Oc1ccc2c(O[C@@H]3C[C@H]4C(=O)N[C@]5(C(=O)NS(=O)(=O)C6(C)CC6)C[C@H]5/C=C\CC[C@H](C)C[C@@H](C)[C@H](NC(=O)O[C@H](C)C(F)(F)F)C(=O)N4C3)nccc2c1 [Compound 5160, (R)-1,1,1-trifluoropropan-2-yl ((2R,6S,7R,9S,13aS,14aR,16aS,Z)-2-((6-isopropoxyisoquinolin-1-yl)oxy)-7,9-dimethyl-14a-(((1-methylcyclopropyl)sulfonyl)carbamoyl)-5,16-dioxo-1,2,3,5,6,7,8,9,10,11,13a,14,14a,15,16,16a-hexadecahydrocyclopropa[e]pyrrolo[1,2-a][1,4]diazacyclopentadecin-6-yl)carbamate] | 6.99 to 8.32 | > 8.26 | 
COc1cnc(O[C@@H]2C[C@H]3C(=O)N[C@]4(C(=O)NS(=O)(=O)C5CC5)C[C@H]4/C=C\CC[C@H](C)C[C@@H](C)[C@H](NC(=O)OC(C)(C)C(F)(F)F)C(=O)N3C2)c2cccc(Cl)c12 [Compound 28, 1,1,1-trifluoro-2-methylpropan-2-yl((2R,6S,7R,9S,13aS,14aR,16aS,Z)-2-((5-chloro-4-methoxyisoquinolin-1-yl)oxy)-14a-((cyclopropylsulfonyl)carbamoyl)-7,9-dimethyl-5,16-dioxo-1,2,3,5,6,7,8,9,10,11,13a,14,14a,15,16,16a-hexadecahydrocyclopropa[e]pyrrolo[1,2-a][1,4]diazacyclopentadecin-6-yl)carbamate] |  |  | pEC50 [1, 5]: > 8.26; pEC50 [2, 6]: > 8.26
CC[C@@H]1C[C@H](C)CC/C=C\[C@@H]2C[C@@]2(C(=O)NS(=O)(=O)C2(C)CC2)NC(=O)[C@@H]2C[C@@H](Oc3nccc4cc(OC)ccc34)CN2C(=O)[C@H]1NC(=O)OC(C)(C)C(F)F [Compound 5523, 1,1-difluoro-2-methylpropan-2-yl((2R,6S,7R,9R,13aS,14aR,16aS,Z)-7-ethyl-2-((6-methoxyisoquinolin-1-yl)oxy)-9-methyl-14a-(((1-methylcyclopropyl)sulfonyl)carbamoyl)-5,16-dioxo-1,2,3,5,6,7,8,9,10,11,13a,14,14a,15,16,16a-hexadecahydrocyclopropa[e]pyrrolo[1,2-a][1,4]diazacyclopentadecin-6-yl)carbamate] | 8.30 to 9.00 | 9.00 to 9.29 | 
CCC(C)(C)OC(=O)N[C@@H]1C(=O)N2C[C@H](Oc3ncc(OC)c4ccccc34)C[C@H]2C(=O)N[C@]2(C(=O)NS(=O)(=O)C3(CF)CC3)C[C@H]2/C=C\CC[C@@H](C)C[C@H]1C [Compound 1044, tert-pentyl ((2R,6S,7R,9R,13aS,14aR,16aS,Z)-14a-(((1-(fluoromethyl)cyclopropyl)sulfonyl)carbamoyl)-2-((4-methoxyisoquinolin-1-yl)oxy)-7,9-dimethyl-5,16-dioxo-1,2,3,5,6,7,8,9,10,11,13a,14,14a,15,16,16a-hexadecahydrocyclopropa[e]pyrrolo[1,2-a][1,4]diazacyclopentadecin-6-yl)carbamate] |  |  | pEC50 [1, 5]: > 8.26; pEC50 [2, 6]: > 8.26
CCOc1cc2ccnc(O[C@@H]3C[C@H]4C(=O)N[C@]5(C(=O)NS(=O)(=O)C6(CF)CC6)C[C@H]5/C=C\CC[C@@H](C)C[C@@H](C)[C@H](NC(=O)OC(C)(C)C)C(=O)N4C3)c2cc1F [Compound 5411, tert-butyl ((2R,6S,7R,9R,13aS,14aR,16aS,Z)-2-((6-ethoxy-7-fluoroisoquinolin-1-yl)oxy)-14a-(((1-(fluoromethyl)cyclopropyl)sulfonyl)carbamoyl)-7,9-dimethyl-5,16-dioxo-1,2,3,5,6,7,8,9,10,11,13a,14,14a,15,16,16a-hexadecahydrocyclopropa[e]pyrrolo[1,2-a][1,4]diazacyclopentadecin-6-yl)carbamate] | 8.30 to 9.00 | 9.00 to 9.29 | 
CC[C@@H]1C[C@H](C)CC/C=C\[C@@H]2C[C@@]2(C(=O)NS(=O)(=O)C2(C)CC2)NC(=O)[C@@H]2C[C@@H](Oc3ncc(OC)c4c(Cl)cccc34)CN2C(=O)[C@H]1NC(=O)OC(C)(C)C(F)(F)F [Compound 4253] |  |  | pEC50 ([1]; GETYPE1A, HCV genotype 1a replicon luciferase): 8.30 to 9.00; pEC50 ([2]; GETYPE1B, HCV genotype 1b replicon luciferase): 9.00 to 9.29
C[C@H]1CC/C=C\[C@@H]2C[C@@]2(C(=O)NS(=O)(=O)C2(CF)CC2)NC(=O)[C@@H]2C[C@@H](Oc3nccc4c5c(ccc34)OCCO5)CN2C(=O)[C@@H](NC(=O)OC(C)(C)C(F)(F)F)[C@H](C)C1 [Compound 5322, 1,1,1-trifluoro-2-methylpropan-2-yl((2R,6S,7R,9S,13aS,14aR,16aS,Z)-2-((2,3-dihydro-[1,4]dioxino[2,3-f]isoquinolin-7-yl)oxy)-14a-(((1-(fluoromethyl)cyclopropyl)sulfonyl)carbamoyl)-7,9-dimethyl-5,16-dioxo-1,2,3,5,6,7,8,9,10,11,13a,14,14a,15,16,16a-hexadecahydrocyclopropa[e]pyrrolo[1,2-a][1,4]diazacyclopentadecin-6-yl)carbamate] | > 8.26 | > 8.26 | 
C[C@@H]1CC/C=C\[C@@H]2C[C@@]2(C(=O)NS(=O)(=O)C2CC2)NC(=O)[C@@H]2C[C@@H](Oc3nccc4ccc(F)cc34)CN2C(=O)[C@@H](NC(=O)OC2(C)CC2)[C@H](C)C1 [Compound 4073, 1-methylcyclopropyl (2R,6S,7R,9R,13aS,14aR,16aS,Z)-14a-(cyclopropylsulfonylcarbamoyl)-2-(7-fluoroisoquinolin-1-yloxy)-7,9-dimethyl-5,16-dioxo-1,2,3,5,6,7,8,9,10,11,13a,14,14a,15,16,16a-hexadecahydrocyclopropa[e]pyrrolo[1,2-a][1,4]diazacyclopentadecin-6-ylcarbamate] | > 8.26 | > 8.26 | 
COc1ccc2nc(C)c(O[C@@H]3C[C@H]4C(=O)N[C@]5(C(=O)NS(=O)(=O)C6(C)CC6)C[C@H]5/C=C\CC[C@@H](C)C[C@@H](C)[C@H](NC(=O)OC(C)(C)C)C(=O)N4C3)nc2c1 [Compound 4109, tert-butyl (2R,6S,7R,9R,13aS,14aR,16aS,Z)-2-(7-methoxy-3-methylquinoxalin-2-yloxy)-7,9-dimethyl-14a-(1-methylcyclopropylsulfonylcarbamoyl)-5,16-dioxo-1,2,3,5,6,7,8,9,10,11,13a,14,14a,15,16,16a-hexadecahydrocyclopropa[e]pyrrolo[1,2-a][1,4]diazacyclopentadecin-6-ylcarbamate] | > 8.26 | > 8.26 | 
CCOc1nnc(O[C@@H]2C[C@H]3C(=O)N[C@]4(C(=O)NS(=O)(=O)C5CC5)C[C@H]4/C=C\CC[C@H](C)C[C@@H](CC)[C@H](NC(=O)OC(C)(C)C)C(=O)N3C2)c2ccccc12 [Compound 5042, tert-butyl ((2R,6S,7R,9S,13aS,14aR,16aS,Z)-14a-((cyclopropylsulfonyl)carbamoyl)-2-((4-ethoxyphthalazin-1-yl)oxy)-7-ethyl-9-methyl-5,16-dioxo-1,2,3,5,6,7,8,9,10,11,13a,14,14a,15,16,16a-hexadecahydrocyclopropa[e]pyrrolo[1,2-a][1,4]diazacyclopentadecin-6-yl)carbamate] | 6.99 to 8.32 | 6.99 to 8.32 | 

Reference: patent US9499550B2 (BRISTOL-MYERS SQUIBB COMPANY, priority 2012, dated 2016)
